Experimental findings from publication PMC9574862, “Designing Soluble PROTACs: Strategies and Preliminary Guidelines” (Journal of Medicinal Chemistry, 2022) are described below.

As a reminder, the solubility is the concentration that dissolves in the medium under given conditions. Low values mean little dissolved substance, high ones much dissolved substance. What is called thermodynamic solubility is solubility found after equilibrating the solid with the medium.

The data set in a line: Thermodynamic solubility, shake-flask, 10 mM PBS (0.15 M KCl) pH 7, 25 °C, 1 h, HPLC-UV. To be noted: for solubility at 1 h / Solubility (in words) / Classification (GSK guidelines): pH 7, 25 °C; for Classification (GSK guidelines): solubility class. Here is the method:
Its measurement only requires an initial DMSO stock solution which is precipitated by the addition of an aqueous phase.[23],[24] Here, we measured thermodynamic solubility, often determined in late lead optimization, which efficiently considers the solubility value when the equilibrium with the stable phase or polymorph has been reached.
Solubility was determined in 10 mM PBS (0.15 M KCl) at pH 7, 25 °C. A 1–2 mg sample of each molecule was added to the same quantity (1–2 mL) of the mentioned buffer to obtain 1 mg/mL solutions in the vial. Samples were then submitted to 25 °C and magnetic stirring (500 rpm) for 1 h. After this period, solutions or suspensions were filtered through the 0.45 μm membrane pore and diluted with buffer, 10 mM PBS (0.15 M KCl). The amount of dissolved compound in each sample was then quantified, in duplicate, via HPLC using ultraviolet (UV) spectrometric detection.
Variable volumes of pure DMSO (0–100 μL) were added separately to small and defined (1 mg) quantities of each compound to obtain clear solutions. […] Afterward, 5% DMSO 10 mM PBS (0.15 M KCl) was added until the suspensions or precipitations were redissolved, to render clear solutions. As soon as solutions were obtained, they were used as mother solutions for the performance of 5–10 point calibration curves with serial buffer dilutions (1:1; v/v) 5% DMSO 10 mM PBS (0.15 M KCl). Calibration points were then measured via HPLC-UV.
The mobile phase consisted of a solution of acetonitrile (ACN) and 20 mM ammonium acetate buffer (AAB), pH 7, freshly prepared. A 10 μL volume of each sample (volume of injection) was injected at an isocratic 1 mL/min flow rate analyzed at 30 °C (oven temperature). Solubility determination of each compound required a specific HPLC method. Settings are collected in Table S11 (PROTACs) and Table S10 (building blocks).
Injections were performed in duplicate for each molecule’s calibration points. The retention time and area under the curve (AUC in absorbance units) were collected, and the average was calculated. The AUC average (y-axis) was plotted versus theoretical concentration (mg/mL; x-axis) to obtain a calibration curve for each molecule. Correlation equations and coefficients (R^2) were efficiently calculated for each compound (Table S12 for PROTACs and Table S10 for building blocks). Samples were then injected in duplicate, and the AUC averages and standard deviations were calculated. Finally, the absorbance averages were interpolated into the corresponding equations, extracting the final solubility values with their standard deviation, after dilution factor corrections.

Where [1] appears, read: 25 °C, pH 7, aqueous buffer, thermodynamic from solid, Solubility average, thermodynamic, shake-flask, 1 h.
The mark [2] stands for this setting: pH 7, aqueous buffer, thermodynamic from solid.
Where [3] appears, read: 25 °C, pH 7, aqueous buffer, thermodynamic from solid, Exp.LogS, PROTAC pairs and building blocks.
Setting [4] is: 25 °C, pH 7, aqueous buffer, thermodynamic from solid, Solubility, Table S-3.
Setting [5] is: 25 °C, pH 7, aqueous buffer, thermodynamic from solid, Solubility log S, Table S-3.
Setting [6] is: pH 7, Exp.LogS, PROTAC pairs and building blocks.

Values after ≈ are worked out from the molar mass of the structure shown.

Consider `Cc1ncsc1-c1ccc(CNC(=O)[C@@H]2C[C@@H](O)CN2C(=O)[C@@H](NC(=O)C2(F)CC2)C(C)(C)C)c(OCCOc2ccc(CN3CCN(c4cc(-c5ccccc5O)nnc4N)CC3)cc2)c1` [ACBI1], for which the “Solubility (in words)” value was “below the quantification limit” and the “Classification (GSK guidelines)” value was “Low (< 30 μM) (Low (< 30 μM))”. For the same compound, the solubility at 1 h under setting [1] is less than 0.72 µM. The compound further gave a solubility (thermodynamic) at 1 h under setting [2] of less than 0.68 µg/mL.
Turning to `Cc1sc2c(c1C)C(c1ccc(Cl)cc1)=N[C@@H](CC(=O)Nc1ccc(OCCOCCOCCOCCNc3cccc4c3C(=O)N(C3CCC(=O)NC3=O)C4=O)cc1)c1nnc(C)n1-2` (some centres unmarked) [ARV-825], the “Solubility (in words)” value is reported as “below the quantification limit” and the “Classification (GSK guidelines)” value was “Low (< 30 μM) (Low (< 30 μM))”. Under setting [1], this compound displayed a solubility at 1 h of less than 0.32 µM. The compound further registered a thermodynamic solubility at 1 h under setting [2] of less than 0.29 µg/mL.
`COc1cc(C(=O)NCCOCCOCCOCC(=O)N[C@H](C(=O)N2C[C@H](O)C[C@H]2C(=O)NCc2ccc(-c3scnc3C)cc2)C(C)(C)C)ccc1Nc1ncc(C(F)(F)F)c(Oc2cccc3c2C(=O)CC3)n1` [BI-0319]: the “Classification (GSK guidelines)” value is “Low (< 30 μM) (Low (< 30 μM))”. Under setting [3], this compound gave a solubility at 1 h of 2.63 µM. Further, the concentration in solution under setting [1] (solubility at 1 h) was 2.63 µM. The compound further gave a solubility (thermodynamic) at 1 h under setting [2] of 2.78 µg/mL (≈ 2.62 µM).
With `COc1cc(C(=O)NCCOCCOCCOCCC(=O)Nc2cccc3c2C(=O)N(C2CCC(=O)NC2=O)C3=O)ccc1Nc1ncc(C(F)(F)F)c(Oc2cccc3c2C(=O)CC3)n1` (centres unmarked) [BI-3663], the “Classification (GSK guidelines)” value is on record as “Low (< 30 μM) (Low (< 30 μM))”. Besides, the solubility at 1 h under setting [3] is 6.92 µM. The amount in solution under setting [1] (solubility at 1 h) came to 6.92 µM. Under setting [4], this compound yielded a solubility at 1 h of 10 µg/mL.
Take `COc1cc(C(=O)NCCOCCOCCOCC(=O)N[C@H](C(=O)N2C[C@@H](O)C[C@H]2C(=O)NCc2ccc(-c3scnc3C)cc2)C(C)(C)C)ccc1Nc1ncc(C(F)(F)F)c(Oc2cccc3c2C(=O)CC3)n1` [BI-4206]: the “Classification (GSK guidelines)” value was “Low (< 30 μM) (Low (< 30 μM))”. Under setting [3], this compound had a solubility at 1 h of 0.575 µM. Moreover, the solubility at 1 h under setting [1] was determined as 0.58 µM. Under setting [2], this compound gave a thermodynamic solubility at 1 h of 0.606 µg/mL (≈ 0.571 µM).
As for `CC(=O)c1c(C)c2cnc(Nc3ccc(N4CCN(CCOCCOCCOCCNC(=O)COc5cccc6c5C(=O)N(C5CCC(=O)NC5=O)C6=O)CC4)cn3)nc2n(C2CCCC2)c1=O` (centres unmarked) [BSJ-03-123], the “Classification (GSK guidelines)” value is listed as “Low (< 30 μM) (Low (< 30 μM))”. Under setting [1], this compound showed a solubility at 1 h of 17.8 µM. The compound further gave a solubility at 1 h under setting [5] of 17.8 µM. Besides, under setting [4], the solubility at 1 h is 20 µg/mL.
With `Cc1ncsc1-c1ccc(CNC(=O)[C@@H]2C[C@@H](O)CN2C(=O)[C@@H](NC(=O)CCCCOCCCCCOCCCCCCNc2cccc3c2C(=O)N(C2CCC(=O)NC2=O)C3=O)C(C)(C)C)cc1` (some centres unmarked) [CRBN-6-5-5-VHL], the “Classification (GSK guidelines)” value was “Low (< 30 μM) (Low (< 30 μM))”. The amount in solution under setting [1] (solubility at 1 h) came to 1.23 µM. Under setting [5], this compound had a solubility at 1 h of 1.23 µM. The compound also had a solubility (thermodynamic) at 1 h under setting [2] of 1.19 µg/mL (≈ 1.22 µM).
Regarding `Cc1ncsc1-c1ccc(CNC(=O)[C@@H]2C[C@H](O)CN2C(=O)[C@@H](NC(=O)C2(F)CC2)C(C)(C)C)c(OCCOc2ccc(CN3CCN(c4cc(-c5ccccc5O)nnc4N)CC3)cc2)c1` [CisACBI1], the “Solubility (in words)” value is “below the quantification limit” and the “Classification (GSK guidelines)” value is listed as “Low (< 30 μM) (Low (< 30 μM))”. Besides, the solubility at 1 h under setting [1] was less than 0.87 µM. Moreover, under setting [5], the solubility at 1 h was less than 0.871 µM. The same compound came in with a solubility (thermodynamic) at 1 h under setting [2] of less than 0.817 µg/mL.
Turning to `Cc1ncsc1-c1ccc(CNC(=O)[C@@H]2C[C@H](O)CN2C(=O)[C@@H](NC(=O)COCCOCCOCCNC(=O)C[C@@H]2N=C(c3ccc(Cl)cc3)c3c(sc(C)c3C)-n3c(C)nnc32)C(C)(C)C)cc1` [CisMZ1], the “Classification (GSK guidelines)” value was “Intermediate (30–200 μM) (Intermediate (30–200 μM))”. Under setting [1], this compound returned a solubility at 1 h of 50.1 µM. Under setting [5], the solubility at 1 h was 50.1 µM. This compound gave a solubility at 1 h under setting [4] of 50 µg/mL.
`COc1cc2ncnc(Nc3ccc(F)c(Cl)c3)c2cc1OCCCCCOCCOCCC(=O)N[C@H](C(=O)N1C[C@H](O)C[C@H]1C(=O)NCc1ccc(-c2scnc2C)cc1)C(C)(C)C` [Gefitinib-based PROTAC 3]: the “Classification (GSK guidelines)” value is reported as “Low (< 30 μM) (Low (< 30 μM))”. The same compound returned a solubility at 1 h under setting [1] of 1.23 µM. Under setting [5], this compound gave a solubility at 1 h of 1.23 µM. Further, the solubility (thermodynamic) at 1 h under setting [2] stood at 1.14 µg/mL (≈ 1.22 µM).
On to `O=C1CCC(N2Cc3c(C#CCCCNC(=O)c4ccc(NC(=O)[C@@H]5NC6(CCCCC6)[C@@]6(C(=O)Nc7cc(Cl)ccc76)[C@H]5c5cccc(Cl)c5F)cc4)cccc3C2=O)C(=O)N1` (some centres unmarked) [MD-224], for which the “Solubility (in words)” value is “below the quantification limit” and the “Classification (GSK guidelines)” value is listed as “Low (< 30 μM) (Low (< 30 μM))”. The solubility at 1 h under setting [1] is less than 0.23 µM. Moreover, under setting [5], the solubility at 1 h is less than 0.229 µM. Under setting [2], this compound came in with a thermodynamic solubility at 1 h of less than 0.289 µg/mL.
In the case of `Cc1ncsc1-c1ccc(CNC(=O)[C@@H]2C[C@@H](O)CN2C(=O)[C@@H](NC(=O)COCCOCCOCCNC(=O)C[C@@H]2N=C(c3ccc(Cl)cc3)c3c(sc(C)c3C)-n3c(C)nnc32)C(C)(C)C)cc1` [MZ1], the “Classification (GSK guidelines)” value is reported as “Intermediate (30–200 μM) (Intermediate (30–200 μM))”. This compound also showed a solubility at 1 h under setting [3] of 38 µM. Also, the solubility at 1 h under setting [1] is 38 µM. Also, under setting [4], the solubility at 1 h amounted to 40 µg/mL.
Take `CC(=O)N1c2ccc(-c3ccc(C(=O)NCCOCCOCCOCC(=O)N[C@H](C(=O)N4C[C@H](O)C[C@H]4C(=O)NCc4ccc(-c5scnc5C)cc4)C(C)(C)C)cc3)cc2[C@H](Nc2ccc(Cl)cc2)C[C@@H]1C` [MZP-54]: the “Classification (GSK guidelines)” value is on record as “Low (< 30 μM) (Low (< 30 μM))”. For the same compound, the solubility at 1 h under setting [3] was 0.513 µM. Besides, the solubility at 1 h under setting [1] was found to be 0.51 µM. Besides, the thermodynamic solubility at 1 h under setting [2] amounted to 0.528 µg/mL (≈ 0.509 µM).
Take `O=C(CCCCC(=O)NCCN1C(=O)c2cccc3c(Sc4ccc(Br)cc4)ccc(c23)C1=O)NCCCCCCNc1cccc2c1C(=O)N(C1CCC(=O)NC1=O)C2=O` (centres unmarked) [Mcl1 degrader-1]: the “Solubility (in words)” value was “below the quantification limit” and the “Classification (GSK guidelines)” value is on record as “Low (< 30 μM) (Low (< 30 μM))”. The compound also returned a solubility at 1 h under setting [1] of less than 0.87 µM. Besides, the solubility at 1 h under setting [5] was less than 0.871 µM. Further, the thermodynamic solubility at 1 h under setting [2] was less than 0.793 µg/mL.
Turning to `CC(C)(C)c1cnc(CSc2cnc(NC(=O)C3CCN(CC(=O)NCCOCCOCCOCCNc4cccc5c4C(=O)N(C4CCC(=O)NC4=O)C5=O)CC3)s2)o1` (centres unmarked) [THAL-SNS-032], the “Classification (GSK guidelines)” value is listed as “Intermediate (30–200 μM) (Intermediate (30–200 μM))”. This compound returned a solubility at 1 h under setting [1] of 52.5 µM. The compound further showed a solubility at 1 h under setting [5] of 52.5 µM. In addition, under setting [4], the concentration in solution (solubility at 1 h) was 50 µg/mL.
Turning to `COc1cc(-c2cn(C)c(=O)c3cnccc23)cc(OC)c1CN1CCN(CCCCCOc2cc(-c3scnc3C)ccc2CNC(=O)[C@@H]2C[C@@H](O)CN2C(=O)[C@@H](NC(=O)C2(F)CC2)C(C)(C)C)CC1` [VZ185], the “Classification (GSK guidelines)” value was “Intermediate (30–200 μM) (Intermediate (30–200 μM))”. The compound further showed a solubility at 1 h under setting [1] of 50.1 µM. Further, the concentration in solution under setting [5] (solubility at 1 h) was 50.1 µM. Besides, the concentration in solution under setting [4] (solubility at 1 h) came to 50 µg/mL.
For the compound `COC(=O)C[C@@H]1N=C(c2ccc(Cl)cc2)c2c(sc(C(=O)NCCCCCNc3cccc4c3C(=O)N(C3CCC(=O)NC3=O)C4=O)c2C)-n2c(C)nnc21` (some centres unmarked) [ZXH-3-26], the “Classification (GSK guidelines)” value is recorded as “Low (< 30 μM) (Low (< 30 μM))”. Besides, under setting [1], the concentration in solution (solubility at 1 h) came to 2.95 µM. Also, under setting [6], the solubility at 1 h is 2.95 µM.
In the case of `Cc1sc2c(c1C)C(c1ccc(Cl)cc1)=N[C@@H](CC(=O)NCCNc1cccc3c1C(=O)N(C1CCC(=O)NC1=O)C3=O)c1nnc(C)n1-2` (some centres unmarked) [dBET57], the “Classification (GSK guidelines)” value is “Intermediate (30–200 μM) (Intermediate (30–200 μM))”. This compound also yielded a solubility at 1 h under setting [1] of 30.2 µM. Besides, the solubility at 1 h under setting [4] turned out to be 20 µg/mL. The compound further had a solubility at 1 h under setting [6] of 30.2 µM.
